Laboratory results: article PMC9706657 (2022)

Key:
Test in all cases: ITC
Details in all cases: Na+ 100 mM (NaCl), Mg2+ 5 mM (MgCl2); 5 mM MES, pH 5.5; aptamer on Au nanoparticle (20 µM aptananozyme in cell)
[1] = test system: aptananozyme I ((1)-modified pA-AuNPs) (DNA, aptamer) CGACGCCAGTTTGAAGGTTCGTTCGCAGGTGTGGAGTGACGTCGGTAACAACAGTCAAAAAAAAAAAAAAAAAAAAGACTGTTGTTAC
[2] = test system: aptananozyme II ((2)-modified pA-AuNPs) (DNA, aptamer) GTAACAACAGTCAAAAAAAAAAAAAAAAAAAAGACTGTTGTTACCGACGCCAGTTTGAAGGTTCGTTCGCAGGTGTGGAGTGACGTCG
[3] = test system: aptananozyme V ((5)-modified pA-AuNPs) (DNA, aptamer) GTAACAACAGTCAAAAAAAAAAAAAAAAAAAAGACTGTTGTTACTGTATGTATGTACGACGCCAGTTTGAAGGTTCGTTCGCAGGTGTGGAGTGACGTCG
[4] = test system: aptananozyme IV ((4)-modified pA-AuNPs) (DNA, aptamer) GTAACAACAGTCAAAAAAAAAAAAAAAAAAAAGACTGTTGTTACTGTATGTACGACGCCAGTTTGAAGGTTCGTTCGCAGGTGTGGAGTGACGTCG
[5] = test system: aptananozyme III ((3)-modified pA-AuNPs) (DNA, aptamer) GTAACAACAGTCAAAAAAAAAAAAAAAAAAAAGACTGTTGTTACTGTACGACGCCAGTTTGAAGGTTCGTTCGCAGGTGTGGAGTGACGTCG

| SMILES | Kd [1] [nM] | Kd [2] [nM] | Kd [3] [nM] | Kd [4] [nM] | Kd [5] [nM] |
| --- | --- | --- | --- | --- | --- |
| NCCc1ccc(O)c(O)c1 | 1650 ± 30 | 1200 ± 60 | 930 ± 50 | 760 ± 30 | 950 ± 40 |
| N[C@@H](Cc1ccc(O)c(O)c1)C(=O)O | – | – | – | 4200 | – |
| N[C@H](Cc1ccc(O)c(O)c1)C(=O)O | – | – | – | 11300 | – |
